# ChEMBL document CHEMBL1201862, “PubChem BioAssay data set” (2004)
#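 Growth conditions: 96-well plates. Treatment: test compound, 48 hours, 5 concentrations. Analysis: linear interpolation between bracketing concentrations; unreached endpoints set to highest concentration. At the GI50, growth is halved.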 Activity calls are given as the source filed them. No stated cut-off is given here; in the data, active = GI50 up to about 1.1 µM and inactive = higher.
# Tests used:
# Experiment in all cases: growth of human tumour cells (NCI), 48 h
# Malme-3M = tested on: Malme-3M
# ACHN = tested on: ACHN
# Hs-578T = tested on: Hs-578T
# SF-268 = tested on: SF-268
# MCF7 = tested on: MCF7
# IGROV-1 = tested on: IGROV-1
# SK-MEL-2 = tested on: SK-MEL-2
# 786-0 = tested on: 786-0
# TK-10 = tested on: TK-10
# OVCAR-4 = tested on: OVCAR-4
# NCI-H460 = tested on: NCI-H460
# NCI-H23 = tested on: NCI-H23
# OVCAR-5 = tested on: OVCAR-5
# OVCAR-8 = tested on: OVCAR-8
# A498 = tested on: A498
# CCRF-CEM = tested on: CCRF-CEM
# MDA-N = tested on: MDA-N
# SK-MEL-5 = tested on: SK-MEL-5
# KM12 = tested on: KM12
# LOX IMVI = tested on: LOX IMVI
# RPMI-8226 = tested on: RPMI-8226
# HT-29 = tested on: HT-29
# M14 = tested on: M14
# MDA-MB-231 = tested on: MDA-MB-231
# DU-145 = tested on: DU-145
# MOLT-4 = tested on: MOLT-4
# UACC-257 = tested on: UACC-257
# UACC-62 = tested on: UACC-62
# SW-620 = tested on: SW-620
# HCC 2998 = tested on: HCC 2998
# COLO 205 = tested on: COLO 205
# A549 = tested on: A549
# SK-OV-3 = tested on: SK-OV-3
# SNB-19 = tested on: SNB-19
# SF-295 = tested on: SF-295
# U-251 = tested on: U-251
# SN12C = tested on: SN12C
# NCI-H522 = tested on: NCI-H522
# CAKI-1 = tested on: CAKI-1
# NCI/ADR-RES = tested on: NCI/ADR-RES
# SR = tested on: SR
# HOP-62 = tested on: HOP-62
# PC-3 = tested on: PC-3
# HCT-15 = tested on: HCT-15
# NCI-H226 = tested on: NCI-H226
# HCT-116 = tested on: HCT-116
# RXF 393 = tested on: RXF 393
# EKVX = tested on: EKVX
# MDA-MB-435 = tested on: MDA-MB-435
# OVCAR-3 = tested on: OVCAR-3
# K562 = tested on: K562
# T47D = tested on: T47D
# SNB-75 = tested on: SNB-75
# UO-31 = tested on: UO-31
# SK-MEL-28 = tested on: SK-MEL-28
# HL-60 = tested on: HL-60
# SF-539 = tested on: SF-539
structure (smiles),measurement,setting,value
C=C(Br)CN(C(C)=O)C1CCCCC1,GI50,Malme-3M,> 100 µM (inactive)
same,GI50,ACHN,> 100 µM (inactive)
same,GI50,Hs-578T,> 100 µM (inactive)
same,GI50,SF-268,> 100 µM (inactive)
same,GI50,MCF7,> 100 µM (inactive)
same,GI50,IGROV-1,> 100 µM (inactive)
same,GI50,SK-MEL-2,> 100 µM (inactive)
same,GI50,786-0,> 100 µM (inactive)
same,GI50,TK-10,> 100 µM (inactive)
same,GI50,OVCAR-4,> 100 µM (inactive)
same,GI50,NCI-H460,> 100 µM (inactive)
same,GI50,NCI-H23,> 100 µM (inactive)
same,GI50,OVCAR-5,> 100 µM (inactive)
same,GI50,OVCAR-8,> 100 µM (inactive)
same,GI50,A498,> 100 µM (inactive)
same,GI50,CCRF-CEM,> 100 µM (inactive)
same,GI50,MDA-N,> 100 µM (inactive)
same,GI50,SK-MEL-5,> 100 µM (inactive)
same,GI50,KM12,> 100 µM (inactive)
same,GI50,LOX IMVI,> 100 µM (inactive)
same,GI50,RPMI-8226,> 100 µM (inactive)
same,GI50,HT-29,> 100 µM (inactive)
same,GI50,M14,> 100 µM (inactive)
same,GI50,MDA-MB-231,> 100 µM (inactive)
same,GI50,DU-145,> 100 µM (inactive)
same,GI50,MOLT-4,> 100 µM (inactive)
same,GI50,UACC-257,> 100 µM (inactive)
same,GI50,UACC-62,> 100 µM (inactive)
same,GI50,SW-620,> 100 µM (inactive)
same,GI50,HCC 2998,> 100 µM (inactive)
same,GI50,COLO 205,> 100 µM (inactive)
same,GI50,A549,> 100 µM (inactive)
same,GI50,SK-OV-3,> 100 µM (inactive)
same,GI50,SNB-19,> 100 µM (inactive)
same,GI50,SF-295,> 100 µM (inactive)
same,GI50,U-251,> 100 µM (inactive)
same,GI50,SN12C,> 100 µM (inactive)
same,GI50,NCI-H522,> 100 µM (inactive)
same,GI50,CAKI-1,> 100 µM (inactive)
same,GI50,NCI/ADR-RES,> 100 µM (inactive)
same,GI50,SR,> 100 µM (inactive)
same,GI50,HOP-62,> 100 µM (inactive)
same,GI50,PC-3,> 100 µM (inactive)
same,GI50,HCT-15,> 100 µM
same,GI50,NCI-H226,> 100 µM (inactive)
same,GI50,HCT-116,> 100 µM (inactive)
same,GI50,RXF 393,> 100 µM (inactive)
same,GI50,EKVX,> 100 µM (inactive)
same,GI50,MDA-MB-435,> 100 µM (inactive)
same,GI50,OVCAR-3,> 100 µM (inactive)
same,GI50,K562,> 100 µM (inactive)
same,GI50,T47D,> 100 µM (inactive)
same,GI50,SNB-75,> 100 µM (inactive)
same,GI50,UO-31,> 100 µM (inactive)
same,GI50,SK-MEL-28,> 100 µM (inactive)
same,GI50,HL-60,> 100 µM (inactive)
same,GI50,SF-539,> 100 µM (inactive)
